Experimental data as given in patent US11980188B2, “Spiro cyclohexanedione derivates as herbicides” (SYNGENTA PARTICIPATIONS AG, priority 2018, dated 2024).

Experiments:
Assay in all cases: Glasshouse herbicide test, pre- and post-emergence, percentage damage
Assay type in all cases: in vivo
Avena fatua (AVEFA) = settings: 250 g/h, evaluated after 13 days, percentage damage on five point scale; for AVEFA POST: post-emergence; for AVEFA PRE: pre-emergence
Protocol: (§1) Seeds of a variety of test species are sown in standard soil in pots (Lolium perenne (LOLPE), Setaria faberi (SETFA), Alopecurus myosuroides (ALOMY), Echinochloa crus-galli (ECHCG), Avena fatua (AVEFA)). After cultivation for one day (pre-emergence) or after 8 days cultivation (post-emergence) under controlled conditions in a glasshouse (at 24/16° C., day/night; 14 hours light; 65% humidity), the plants are sprayed with an aqueous spray solution derived from the formulation of the technical active ingredient in acetone/water (50:50) solution containing 0.5% Tween 20 (polyoxyethelyene sorbitan monolaurate, CAS RN 9005-64-5). Compounds are applied at […]. The test plants are then grown in a glasshouse under controlled conditions in a glasshouse (at 24/16° C., day/night; 14 hours light; 65% humidity) and watered twice daily. After 13 days for pre and post-emergence, the test is evaluated for the percentage damage caused to the plant. The biological activities are shown in the following table on a five point scale (5=80-100%; 4=60-79%; 3=40-59%; 2=20-39%; 1=0-19%).

[1] = tested on: Echinochloa crus-galli (ECHCG); settings: 250 g/h, evaluated after 13 days, percentage damage on five point scale; for ECHCG POST: post-emergence; for ECHCG PRE: pre-emergence
Protocol: as §1

Setaria faberi (SETFA) = settings: 250 g/h, evaluated after 13 days, percentage damage on five point scale; for SETFA POST: post-emergence; for SETFA PRE: pre-emergence
Protocol: as §1

Lolium perenne (LOLPE) = settings: 250 g/h, evaluated after 13 days, percentage damage on five point scale; for LOLPE POST: post-emergence; for LOLPE PRE: pre-emergence
Protocol: as §1

[2] = tested on: Alopecurus myosuroides (ALOMY); settings: 250 g/h, evaluated after 13 days, percentage damage on five point scale; for ALOMY PRE: pre-emergence; for ALOMY POST: post-emergence
Protocol: as §1

SMILES	AVEFA POST (Avena fatua (AVEFA))	AVEFA PRE (Avena fatua (AVEFA))	ECHCG POST [1]	ECHCG PRE [1]	SETFA POST (Setaria faberi (SETFA))	SETFA PRE (Setaria faberi (SETFA))	LOLPE POST (Lolium perenne (LOLPE))	LOLPE PRE (Lolium perenne (LOLPE))	ALOMY PRE [2]	ALOMY POST [2]
COc1cc(-c2ccc(F)cc2)cc(C)c1C1C(=O)CC2(CCN(C(=O)c3ccccn3)CC2)CC1=O [Compound A66]	5 (5=80-100%)	5 (5=80-100%)	5 (5=80-100%)	5 (5=80-100%)	5 (5=80-100%)	5 (5=80-100%)	5 (5=80-100%)	5 (5=80-100%)		
Cc1cc(-c2ccc(F)cc2)cc(C)c1C1C(=O)CC2(CCN(C(=O)c3ccccn3)CC2)CC1=O [Compound A55]	5 (5=80-100%)	5 (5=80-100%)	5 (5=80-100%)	5 (5=80-100%)	5 (5=80-100%)	5 (5=80-100%)	5 (5=80-100%)	5 (5=80-100%)	5 (5=80-100%)	
Cc1cc(-c2ncc(F)cn2)cc(C)c1C1C(=O)CC2(CCN(C(=O)c3ccccc3)CC2)CC1=O [Compound A33]	5 (5=80-100%)	5 (5=80-100%)	5 (5=80-100%)	5 (5=80-100%)	5 (5=80-100%)	5 (5=80-100%)	5 (5=80-100%)	5 (5=80-100%)	5 (5=80-100%)	5 (5=80-100%)
CCS(=O)(=O)N1CCC2(CC1)CC(=O)C(c1c(C)cc(-c3ccc(C#N)cn3)cc1C)C(=O)C2 [Compound A22]	5 (5=80-100%)	5 (5=80-100%)		5 (5=80-100%)	5 (5=80-100%)	5 (5=80-100%)	5 (5=80-100%)	5 (5=80-100%)	5 (5=80-100%)	5 (5=80-100%)
COc1cc(-c2ccc(F)cc2)cc(C)c1C1C(=O)CC2(CCN(C(=O)NC(=O)C(C)(C)C)CC2)CC1=O [Compound A69]	5 (5=80-100%)	2 (2=20-39%)	5 (5=80-100%)	5 (5=80-100%)	5 (5=80-100%)	5 (5=80-100%)	5 (5=80-100%)	4 (4=60-79%)		
CON1CCC2(CC1)CC(=O)C(c1c(C)cc(-c3ncc(F)cn3)cc1C)C(=O)C2 [Compound A2, 9-[4-(5-fluoropyrimidin-2-yl)-2,6-dimethyl-phenyl]-3-methoxy-3-azaspiro[5.5]undecane-8,10-dione]	5 (5=80-100%)	5 (5=80-100%)	5 (5=80-100%)	5 (5=80-100%)	5 (5=80-100%)	5 (5=80-100%)	5 (5=80-100%)	5 (5=80-100%)	5 (5=80-100%)	5 (5=80-100%)
CC(=O)N1CCC2(CC1)CC(=O)C(c1c(C)cc(-c3ccc(C#N)cn3)cc1C)C(=O)C2 [Compound A14]	5 (5=80-100%)	5 (5=80-100%)		5 (5=80-100%)	5 (5=80-100%)	5 (5=80-100%)	5 (5=80-100%)	5 (5=80-100%)	5 (5=80-100%)	5 (5=80-100%)
COc1cc(-c2ccc(F)cc2)cc(C)c1C1C(=O)CC2(CCN(C(=O)NC(C)(C)C)CC2)CC1=O [Compound A68]	5 (5=80-100%)	4 (4=60-79%)	5 (5=80-100%)	5 (5=80-100%)	5 (5=80-100%)	5 (5=80-100%)	5 (5=80-100%)	4 (4=60-79%)		
COc1cc(-c2ccc(F)cc2)cc(C)c1C1C(=O)CC2(CCN(C(=O)C(F)F)CC2)CC1=O [Compound A71]	5 (5=80-100%)	5 (5=80-100%)	5 (5=80-100%)	5 (5=80-100%)	5 (5=80-100%)	5 (5=80-100%)	5 (5=80-100%)	5 (5=80-100%)		
Cc1cc(-c2ccc(F)cc2)cc(C)c1C1C(=O)CC2(CCN(C(=O)NC(C)(C)C)CC2)CC1=O [Compound A57]	4 (4=60-79%)	1 (1=0-19%)	5 (5=80-100%)	5 (5=80-100%)	5 (5=80-100%)	5 (5=80-100%)	5 (5=80-100%)	5 (5=80-100%)		
CCS(=O)(=O)N1CCC2(CC1)CC(=O)C(c1c(C)cc(-c3ccc(F)cc3)cc1OC)C(=O)C2 [Compound A64]	5 (5=80-100%)	5 (5=80-100%)	5 (5=80-100%)	5 (5=80-100%)	5 (5=80-100%)	5 (5=80-100%)	5 (5=80-100%)	5 (5=80-100%)		
Cc1cc(-c2ccc(F)cc2)cc(C)c1C1C(=O)CC2(CCN(C(=O)NC(=O)c3ccccn3)CC2)CC1=O [Compound A62]	5 (5=80-100%)	2 (2=20-39%)	3 (3=40-59%)	1 (1=0-19%)	5 (5=80-100%)	3 (3=40-59%)	2 (2=20-39%)	2 (2=20-39%)		
COc1cc(-c2ccc(F)cc2)cc(C)c1C1C(=O)CC2(CCN(C(=O)C(C)(C)C)CC2)CC1=O [Compound A72]	5 (5=80-100%)	1 (1=0-19%)	5 (5=80-100%)	5 (5=80-100%)	5 (5=80-100%)	5 (5=80-100%)	5 (5=80-100%)	5 (5=80-100%)		
COc1cc(-c2ccc(F)cc2)cc(C)c1C1C(=O)CC2(CCN(C(=O)CC#N)CC2)CC1=O [Compound A74]	5 (5=80-100%)	5 (5=80-100%)	5 (5=80-100%)	5 (5=80-100%)	5 (5=80-100%)	5 (5=80-100%)	5 (5=80-100%)	5 (5=80-100%)		
COCC(=O)N1CCC2(CC1)CC(=O)C(c1c(C)cc(-c3ccc(F)cc3)cc1OC)C(=O)C2 [Compound A67]	5 (5=80-100%)	5 (5=80-100%)	5 (5=80-100%)	5 (5=80-100%)	5 (5=80-100%)	5 (5=80-100%)	5 (5=80-100%)	5 (5=80-100%)		
COc1cc(-c2ccc(F)cc2)cc(C)c1C1C(=O)CC2(CCN(C(=O)C3CC3)CC2)CC1=O [Compound A70]	5 (5=80-100%)	5 (5=80-100%)	5 (5=80-100%)	5 (5=80-100%)	5 (5=80-100%)	5 (5=80-100%)	5 (5=80-100%)	5 (5=80-100%)		
